Target: T1, CnCDK7; pulled-down CAK complex (CnCAK: CDK7-CycH-Mat1) (Cryptococcus neoformans, UniProt J9W126)
T1 construct: gene CNAG_06445; native trimeric CAK complex pulled down on mNeonGreen-Trap beads from C. neoformans; CDK7 tagged with mNeonGreen, CycH with V5, Mat1 with 6xHis; with Cyclin H
T1 sequence (J9W126 1-358): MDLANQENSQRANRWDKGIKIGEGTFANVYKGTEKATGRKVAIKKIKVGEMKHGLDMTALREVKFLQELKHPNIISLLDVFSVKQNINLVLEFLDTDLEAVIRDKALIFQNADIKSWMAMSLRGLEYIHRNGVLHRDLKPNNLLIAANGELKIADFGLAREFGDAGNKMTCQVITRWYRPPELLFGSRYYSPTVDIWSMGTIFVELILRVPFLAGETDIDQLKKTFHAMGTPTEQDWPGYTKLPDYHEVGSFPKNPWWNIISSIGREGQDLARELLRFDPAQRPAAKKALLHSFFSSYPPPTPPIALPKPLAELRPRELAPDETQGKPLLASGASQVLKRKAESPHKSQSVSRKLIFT
T1 sequence (J9VUP1 1-447 partner): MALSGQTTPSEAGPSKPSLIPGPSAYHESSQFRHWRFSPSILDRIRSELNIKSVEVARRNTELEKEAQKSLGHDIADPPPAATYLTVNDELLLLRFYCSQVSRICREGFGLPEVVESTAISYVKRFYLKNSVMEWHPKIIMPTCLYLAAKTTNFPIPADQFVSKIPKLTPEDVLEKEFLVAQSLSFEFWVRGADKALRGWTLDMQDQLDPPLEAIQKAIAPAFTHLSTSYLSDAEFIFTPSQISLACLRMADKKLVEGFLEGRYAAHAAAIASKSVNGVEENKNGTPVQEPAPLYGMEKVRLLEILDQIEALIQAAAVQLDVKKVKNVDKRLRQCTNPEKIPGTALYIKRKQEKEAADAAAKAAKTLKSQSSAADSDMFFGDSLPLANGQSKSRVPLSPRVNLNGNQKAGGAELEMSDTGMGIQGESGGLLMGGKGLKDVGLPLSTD
T1 sequence (J9VS06 1-372 partner): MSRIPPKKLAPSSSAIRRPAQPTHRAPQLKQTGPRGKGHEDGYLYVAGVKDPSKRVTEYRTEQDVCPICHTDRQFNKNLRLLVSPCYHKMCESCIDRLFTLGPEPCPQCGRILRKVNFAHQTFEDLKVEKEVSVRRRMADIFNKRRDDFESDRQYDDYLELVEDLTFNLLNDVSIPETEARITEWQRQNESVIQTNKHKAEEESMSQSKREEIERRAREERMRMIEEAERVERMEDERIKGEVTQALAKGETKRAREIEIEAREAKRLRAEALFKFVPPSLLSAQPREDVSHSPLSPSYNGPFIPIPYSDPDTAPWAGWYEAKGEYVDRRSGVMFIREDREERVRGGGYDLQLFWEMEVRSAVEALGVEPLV
Test: Kinase-Glo ATP consumption, pulled-down CAK, […] min
Assay type: biochemical
Settings: co-substrate 250 µM CDK7/9tide; 20 mM MgCl2, pH 7.5, room temperature; bead-bound complex

Nc1ncnc2c1ncn2[C@@H]1O[C@H](COP(=O)(O)OP(=O)(O)OP(=O)(O)O)[C@@H](O)[C@H]1O [ATP]
Kinase-Glo ATP consumption, pulled-down CAK, 300 min: ATP consumption (due to the phosphorylation of the peptide substrate by CDK7)

From article PMC12691695, “Functional insight into cyclin-dependent kinase (CDK)7 via chemical inhibition of the priority fungal pathogen Cryptococcus neoformans” (mBio, 2025)
